Values after ≈ are worked out from the molar mass of the structure shown. Like-named read-outs stand apart in the source and are kept apart here.
Experiments:
Test in all cases: MIC by agar dilution method
Assay type in all cases: cell-based
[1] = tested on: Escherichia coli OKI 35034
[2] = tested on: Helicobacter pylori 27606
[3] = tested on: Pseudomonas aeruginosa ATCC 27853; details: ATCC27853
[4] = tested on: Staphylococcus epidermis OKI 110001; details: OKI110001
[5] = tested on: Staphylococcus aureus ATCC 25923
[6] = tested on: Helicobacter pylori 27604
[7] = tested on: Proteus vulgaris OKI 60002
[8] = tested on: Salmonella typhi OKI 10084; details: Salmonella enterica, Salmonella typhi OKI 10084, agar dilution
[9] = tested on: Streptococcus fecalis OKI 80171; details: OKI80171, Streptococcus fecalis OKI 80171, agar dilution
[10] = Escherichia coli, OKI35034, Escherichia coli OKI 35034, agar dilution, read-out: MIC
[11] = Helicobacter pylori 27606, agar dilution, read-out: MIC
[12] = ATCC25923, Staphylococcus aureus ATCC 25923, agar dilution, read-out: MIC
[13] = Helicobacter pylori 27604, agar dilution, read-out: MIC
[14] = Proteus vulgaris, OKI60002, Proteus vulgaris OKI 60002, agar dilution, read-out: MIC

| MIC ([1]; Escherichia coli OKI 35034, agar dilution) [µg/mL] | MIC ([3]; Pseudomonas aeruginosa ATCC 27853, agar dilution, read-out: MIC) [µg/mL] | MIC ([4]; Staphylococcus epidermis OKI 110001, agar dilution, read-out: MIC) [µg/mL] | MIC ([7]; Proteus vulgaris OKI 60002, agar dilution) [µg/mL] | Compound | MIC [1, 10] [µg/mL] | MIC [2, 11] [µg/mL] | MIC [5, 12] [µg/mL] | MIC [6, 13] [µg/mL] | MIC [7, 14] [µg/mL] | MIC ([1]; Escherichia coli, OKI35034, Escherichia coli OKI 35034, agar dilution) [µg/mL] | MIC ([8]; read-out: MIC) [µg/mL] | MIC ([2]; Helicobacter pylori, 27606) [µg/mL] | MIC ([3]; Pseudomonas aeruginosa) [µg/mL] | MIC ([4]; Staphylococcus) [µg/mL] | MIC ([5]; ATCC25923) [µg/mL] | MIC ([6]; Helicobacter pylori, 27604) [µg/mL] | MIC [9] [µg/mL] | MIC ([7]; Proteus vulgaris, OKI60002) [µg/mL] | MIC ([8]; TYPHI) [µg/mL] |
| --- | --- | --- | --- | --- | --- | --- | --- | --- | --- | --- | --- | --- | --- | --- | --- | --- | --- | --- | --- |
| 50 (≈ 137 µM) | > 100 | ≥ 0.39 | 100 (≈ 274 µM) | CC1(C)S[C@@H]2[C@H](NC(=O)[C@H](N)c3ccc(O)cc3)C(=O)N2[C@H]1C(=O)O [Amoxicillin, amoxicillin] | 25 (≈ 68.4 µM) | ≥ 0.39 | ≥ 0.39 | ≥ 0.39 | 50 (≈ 137 µM) |  |  |  |  |  |  |  |  |  |  |
|  |  |  |  | CCOP(=O)(OCC)C(CSCC(=O)OCOC(=O)N1CCN(c2cc3c(cc2F)c(=O)c(C(=O)O)cn3CC)CC1)P(=O)(OCC)OCC [Example 1 B, 7-(4-((2,2-Bis-(diethoxyphosphoryl)-ethylsulfanyl)-acetoxymethoxycarbonyl)-piperazin-1-yl)-1-ethyl-6-fluoro-4-oxo-1,4-dihydroquinoline-3-carboxylic acid] |  |  |  |  |  | ≥ 0.39 | ≥ 0.78 | 3.12 (≈ 4.06 µM) | 12.5 (≈ 16.3 µM) | 1.56 (≈ 2.03 µM) | 6.25 (≈ 8.14 µM) | 6.25 (≈ 8.14 µM) | 12.5 (≈ 16.3 µM) | 1.56 (≈ 2.03 µM) |  |
|  |  |  |  | CCn1cc(C(=O)O)c(=O)c2cc(F)c(N3CCNCC3)cc21 [Norfloxacin, norfloxacin] | ≥ 0.39 | 6.25 (≈ 19.6 µM) | 6.25 (≈ 19.6 µM) | 6.25 (≈ 19.6 µM) | 0.78 (≈ 2.44 µM) |  |  |  | 12.5 (≈ 39.1 µM) | 1.56 (≈ 4.89 µM) |  |  | 12.5 (≈ 39.1 µM) |  | ≥ 0.39 |

— patent US6333424A, “Therapeutic derivatives of diphosphonates” (priority 1999, dated 2001)
